Earlier results, collected in patent US20090023784A1, “USE OF DEFERIPRONE AND METHODS TO TREAT AND/OR PREVENT FRIEDREICH ATAXIA RESULTING FROM INTRACELLULAR MISHANDLING OF IRON” (priority 2006, published 2009).

System: intracellular iron pools of macrophages, hepatocytes, and cardiomyocyte cell lines
Settings: living cells, fluorescence probes; cited from earlier work

For `CC(=O)N(O)CCCCCNC(=O)CCC(=O)N(O)CCCCCNC(=O)CCC(=O)N(O)CCCCCN` [desferrioxamine], the “access to intracellular iron pools / chelation” value is given as “slow”.
